The source made the active and inactive calls. The calls are words filed in the database; no cut-off is given here.
Legend:
[1] = Inhibition of TNF-alpha induced NF-kappaB activation in HEK293T cells preincubated for 4 hrs and followed by TNF-alpha stimulation and measured after 4 hrs by dual-luciferase reporter assay; format: cell-based; conditions: Homo sapiens, HEK-293T
[2] = Cytotoxicity against TNF-alpha induced HEK293T cells assessed as inhibition of cell growth preincubated for 24 hrs followed by TNFalpha stimulation and measured after 4 hrs by SRB assay; format: toxicity, cell-based, HEK-293T; conditions: human, HEK293T cells induced with TNF-alpha; time 28 hrs
[3] = Selectivity index, ratio of CC50 for cytotoxicity against TNF-alpha induced HEK293T cells to IC50 for inhibition of TNF-alpha induced NF-kappaB activation in HEK293T cells; format: toxicity, cell-based; conditions: human, HEK293T cells induced with TNF-alpha; read-out: Ratio IC50
[4] = system: RAW264.7; experiment: Antiinflammatory activity in mouse RAW264.7 cells assessed as inhibition in LPS/IFNgamma-induced NO production preincubated for 2 hrs followed by LPS/IFNgamma stimulation and measured after 24 hrs by Griess reagent based assay; format: functional, cell-based
[5] = Selectivity index, ratio of CC50 for cytotoxicity against LPS/IFNgamma induced mouse RAW264.7 cells to IC50 for antiinflammatory activity in mouse RAW264.7 cells assessed as inhibition in LPS/IFNgamma-induced NO production; format: toxicity, cell-based; conditions: RAW264.7 cells induced with LPS/IFNgamma, read-out: Ratio IC50
[6] = Cytotoxicity against LPS/IFNgamma induced mouse RAW264.7 cells assessed as inhibition of cell growth preincubated for 24 hrs followed by LPS/IFNgamma stimulation and measured after 24 hrs by SRB assay; format: toxicity, cell-based; conditions: RAW264.7 cells induced with LPS/IFNgamma, time 48 hrs
[7] = system: RAW264.7; experiment: Antiinflammatory activity in mouse RAW264.7 cells assessed as inhibition in LPS/IFNgamma-induced NO production at 200 uM preincubated for 2 hrs followed by LPS/IFNgamma stimulation and measured after 24 hrs by Griess reagent based assay relative to control; format: functional; conditions: time 26 hrs
[8] = system: Mus musculus; experiment: Anti-inflammatory activity in C57BL/6 mouse model of DSS-induced acute ulcerative colitis assessed as reduction in p65 expression in colon at 50 mg/kg, po administered once a day for 7 days by immunohistochemical analysis; format: functional, organism-based; conditions: time 7.0 day
[9] = system: Mus musculus; experiment: Anti-inflammatory activity in C57BL/6 mouse model of DSS-induced acute ulcerative colitis assessed as reduction in ulcerations at 100 to 300 mg/kg, po administered once a day for 7 days by H and E staining based analysis; format: functional, organism-based; conditions: dose 100-300 mg/kg, time 7.0 day

Row | Structure (SMILES) | IC50 [1] [µM] | IC50 [4] [µM] | CC50 at 4 h [2] [µM] | selectivity ratio [3] | selectivity ratio [5] | CC50 at 24 h [6] [µM] | inhibition at 200 µM [7] [%] | Activity [8] | Activity [9]
1 | COc1ccc(C#CC2CC3OC2c2ccccc23)cc1 (configuration not stated) | 157 | 161 | 181 | 1.15 | 1.19 | 191 | – | – | –
2 | C[C@@]12C(=O)OC(=O)[C@]1(C)[C@H]1CC[C@@H]2O1 [CANTHARIDIN] | – | 10.2 | – | – | 0.38 | 3.88 | – | – | –
3 | COc1ccc(OC)c2c1C1C=CC2O1 | 24.6 | > 200 | 118 | 4.79 | – | > 200 | ~30 | – | –
4 | CC(C)(C)OC(=O)C1=C(C(=O)OC(C)(C)C)C2C=CC1O2 | 42 | 3.7 | 80.3 | 1.91 | 3.46 | 12.8 | – | – | –
5 | Nc1ccc(O)c(C(=O)O)c1 | – | – | – | – | – | – | – | inactive | –

The remaining compounds from weak to strong by IC50 [1], led by results:

Row | IC50 [1] [µM] | IC50 [4] [µM] | Structure (SMILES) | CC50 at 4 h [2] [µM] | selectivity ratio [3] | selectivity ratio [5] | CC50 at 24 h [6] [µM] | inhibition at 200 µM [7] [%] | Activity [8] | Activity [9]
6 | 19.9 | > 200 | COc1cc2c(cc1OC)C1C=CC2O1 | 114 | 5.72 | – | > 200 | ~30 | – | –
7 | 12.2 | – | C[C@@H]1C[C@H]2[C@@H]3CCC4=CC(=O)C=C[C@]4(C)[C@@]3(F)[C@@H](O)C[C@]2(C)[C@@]1(O)C(=O)CO [DEXAMETHASONE] | > 200 | > 16.4 | – | – | – | – | –
8 | 12 | 3.53 | COC(=O)C1=C(C(=O)OC)C2OC1CC2C#Cc1ccc(Cl)cc1 (configuration not stated) | 20.9 | 1.74 | 1.48 | 5.23 | – | – | –
9 | 9.92 | 3.77 | COC(=O)C1=C(C(=O)OC)C2OC1CC2C#Cc1ccccc1OC (configuration not stated) | 30.7 | 3.09 | 1.45 | 5.46 | – | – | Active
10 | 6.3 | 3.7 | COC(=O)C1=C(C(=O)OC)C2OC1CC2C#Cc1cc(OC)cc(OC)c1 (configuration not stated) | 34.4 | 5.45 | 1.37 | 5.06 | – | – | –
11 | 5.58 | 3.75 | COC(=O)C1=C(C(=O)OC)C2OC1CC2C#Cc1ccc(F)cc1 (configuration not stated) | 26.5 | 4.75 | 1.67 | 6.25 | – | – | –
12 | 4.42 | 3.47 | COC(=O)C1=C(C(=O)OC)C2OC1CC2C#Cc1ccc(Br)cc1 (configuration not stated) | 21.7 | 4.9 | 1.46 | 5.06 | – | – | –

Source: ChEMBL document CHEMBL5634091, “Cantharidin analogue alleviates dextran sulfate sodium-induced colitis in mice by inhibiting the activation of NF-κB signaling” (Eur J Med Chem, 2023)
